{"source": "paper PMC3348334", "about": "(Bioorganic & medicinal chemistry letters, 2012)", "system": "COX", "assay": "COX activity inhibition at single concentration", "type": "biochemical, human", "conditions": "at 100 μM", "data": [{"smiles": "O=C(O)c1cccc(Nc2ccc([N+](=O)[O-])c3ccccc23)c1", "note": "[Compound 2, 3-((4-nitronaphthalen-1-yl)amino)benzoic acid]", "values": [{"measurement": "inhibition of COX activity", "value": "no significant inhibition"}]}]}
